According to ChEMBL document CHEMBL1157904, “Discovery of pyrazolthiazoles as novel and potent inhibitors of bacterial gyrase” (Bioorg Med Chem Lett, 2010):
Converted amounts (≈) assume the structure as drawn. The source made the active and inactive calls. The calls are words filed in the database; no cut-off is given here.

Experiments:
[1] = Inhibition of ATPase activity of Escherichia coli DNA gyrase B
Escherichia coli [2] = test: Antibacterial activity against wild type Escherichia coli; type: functional
Staphylococcus aureus [3] = test: Antibacterial activity against wild type Staphylococcus aureus; type: functional
Streptococcus pneumoniae [4] = test: Antibacterial activity against wild type Streptococcus pneumoniae; type: functional
[5] = (§1) Inhibition of ATPase activity of Staphylococcus aureus DNA gyrase B
Escherichia coli [6] = test: Antibacterial activity against tol C pump knockout Escherichia coli CAG12184; type: functional
Staphylococcus aureus [7] = test: as §1
Staphylococcus aureus [8] = test: Antibacterial activity against Staphylococcus aureus ATCC 29213; type: functional
Streptococcus pneumoniae [9] = test: Antibacterial activity against Streptococcus pneumoniae ATCC 10015; type: functional
[10] = Selectivity ratio of Ki for Escherichia coli DNA gyraseB to Ki for Staphylococcus aureus DNA gyraseB

**Q.** Which Ki [1] does the source give for `CCOC(=O)c1cc(-c2sc(-c3cccnc3)nc2N2CCC(C)CC2)n[nH]1` here?
**A.** Its Ki is 1050 nM.

**Q.** And the MIC (Escherichia coli [2])?
**A.** The MIC was greater than 64 µg/mL.

**Q.** What about the MIC (Staphylococcus aureus [3]) of the same compound?
**A.** Its MIC is greater than 64 µg/mL.

**Q.** And the MIC (Streptococcus pneumoniae [4])?
**A.** The MIC was greater than 64 µg/mL.

**Q.** For `CC#CCOC(=O)NCc1cc(-c2sc(-c3cccnc3)nc2COC)n[nH]1`, which Ki [1] is on record?
**A.** Its Ki is 14 nM.

**Q.** What about the Ki [5] of the same compound?
**A.** Its Ki is 1100 nM.

**Q.** What about the MIC (Escherichia coli [6]) of the same compound?
**A.** The MIC was 8 µg/mL (≈ 20.1 µM).

**Q.** What about the Activity (Escherichia coli [2]) of the same compound?
**A.** The Activity was “inactive”.

**Q.** What does the source list for `CCNC(=O)c1cc(-c2sc(-c3cccnc3)nc2[C@H]2CCCCN2)n[nH]1`?
**A.** Ki [1]: 3400 nM; inhibition (Staphylococcus aureus [7]): Active; MIC (Escherichia coli [6]): > 64 µg/mL; MIC (Staphylococcus aureus [8]): > 64 µg/mL; MIC (Streptococcus pneumoniae [9]): > 64 µg/mL

**Q.** With `CSc1cc(-c2sc(-c3ccccc3)nc2C)n[nH]1` as the compound, how does the Ki [1] read?
**A.** Its Ki is 3500 nM.

**Q.** With `CCOC(=O)c1cc(-c2sc(-c3cccnc3)nc2-c2ccccc2)n[nH]1` as the compound, how does the Ki [1] read?
**A.** Its Ki is 70 nM.

**Q.** Which Ki [1] does the source give for `CCOC(=O)c1cc(-c2sc(-c3cccs3)nc2C)n[nH]1` here?
**A.** Its Ki is 2600 nM.

**Q.** For `CCOC(=O)c1cc(-c2sc(-c3ccccc3)nc2N2CCOCC2)n[nH]1`, which Ki [1] is on record?
**A.** The Ki was 630 nM.

**Q.** And the MIC (Escherichia coli [2])?
**A.** The MIC was greater than 64 µg/mL.

**Q.** What about the MIC (Staphylococcus aureus [3]) of the same compound?
**A.** Its MIC is greater than 64 µg/mL.

**Q.** What about the MIC (Streptococcus pneumoniae [4]) of the same compound?
**A.** The MIC was greater than 64 µg/mL.

**Q.** Which results are given for `CCNC(=O)c1cc(-c2sc(-c3cccnc3)nc2[C@@H]2CCCN2)n[nH]1`?
**A.** Ki [1]: 82 nM; MIC (Escherichia coli [6]): 32 µg/mL (≈ 86.8 µM)

**Q.** For `CC#CCOC(=O)NCc1cc(-c2sc(-c3cccnc3)nc2N2CCCCC2)n[nH]1`, which Ki [1] is on record?
**A.** The Ki was less than 4 nM.

**Q.** What about the Ki [5] of the same compound?
**A.** The Ki was 140 nM.

**Q.** What about the MIC (Escherichia coli [6]) of the same compound?
**A.** Its MIC is 0.5 µg/mL (≈ 1.15 µM).

**Q.** What about the Activity (Escherichia coli [2]) of the same compound?
**A.** Its Activity is “inactive”.

**Q.** Which Ki [1] does the source give for `COC(=O)NCc1cc(-c2sc(-c3cccnc3)nc2N2CCCCC2)n[nH]1` here?
**A.** The Ki was 56 nM.

**Q.** What about the Ki [5] of the same compound?
**A.** The Ki was 300 nM.

**Q.** What about the MIC (Escherichia coli [6]) of the same compound?
**A.** The MIC was greater than 64 µg/mL.

**Q.** What about the Activity (Escherichia coli [2]) of the same compound?
**A.** Its Activity is “inactive”.

**Q.** Which Ki [1] does the source give for `CSc1cc(-c2sc(-c3cccs3)nc2C)[nH]n1` here?
**A.** The Ki was 2900 nM.

**Q.** For `CCOC(=O)c1cc(-c2sc(-c3cccnc3)nc2COC)n[nH]1`, which Ki [1] is on record?
**A.** Its Ki is 280 nM.

**Q.** What about the MIC (Escherichia coli [2]) of the same compound?
**A.** The MIC was greater than 64 µg/mL.

**Q.** What about the MIC (Staphylococcus aureus [3]) of the same compound?
**A.** The MIC was greater than 64 µg/mL.

**Q.** What about the MIC (Streptococcus pneumoniae [4]) of the same compound?
**A.** The MIC was greater than 64 µg/mL.

**Q.** For `CCOC(=O)c1cc(-c2sc(-c3cccnc3)nc2C2CCCCC2)n[nH]1`, which Ki [1] is on record?
**A.** Its Ki is 120 nM.

**Q.** Which Ki [1] does the source give for `CCOC(=O)c1cc(-c2sc(-c3ccccc3)nc2-c2ccccc2)n[nH]1` here?
**A.** Its Ki is 140 nM.

**Q.** Which Ki [1] does the source give for `CCOC(=O)c1cc(-c2sc(-c3cccnc3)nc2CO)n[nH]1` here?
**A.** The Ki was 670 nM.

**Q.** And the MIC (Escherichia coli [2])?
**A.** Its MIC is greater than 64 µg/mL.

**Q.** What about the MIC (Staphylococcus aureus [3]) of the same compound?
**A.** The MIC was greater than 64 µg/mL.

**Q.** What about the MIC (Streptococcus pneumoniae [4]) of the same compound?
**A.** The MIC was greater than 64 µg/mL.

**Q.** Which Ki [1] does the source give for `CCOC(=O)c1cc(-c2sc(-c3ccccc3)nc2N2CCCCC2)n[nH]1` here?
**A.** Its Ki is 210 nM.

**Q.** What about the MIC (Escherichia coli [2]) of the same compound?
**A.** The MIC was greater than 64 µg/mL.

**Q.** And the MIC (Staphylococcus aureus [3])?
**A.** Its MIC is greater than 64 µg/mL.

**Q.** What about the MIC (Streptococcus pneumoniae [4]) of the same compound?
**A.** The MIC was greater than 64 µg/mL.

**Q.** For `CCNC(=O)c1cc(-c2sc(-c3cccnc3)nc2[C@@H]2CCCCN2)n[nH]1`, which Ki [1] is on record?
**A.** Its Ki is 40 nM.

**Q.** And the inhibition (Staphylococcus aureus [7])?
**A.** Its inhibition is “Active”.

**Q.** And the MIC (Escherichia coli [6])?
**A.** The MIC was 48 µg/mL (≈ 125 µM).

**Q.** And the MIC (Staphylococcus aureus [8])?
**A.** Its MIC is 32 µg/mL (≈ 83.7 µM).

**Q.** What about the MIC (Streptococcus pneumoniae [9]) of the same compound?
**A.** The MIC was 1.5 µg/mL (≈ 3.92 µM).

**Q.** For `COC(=O)NCc1cc(-c2sc(-c3ccccc3)nc2N2CCC(O)CC2)[nH]n1`, which Ki [1] is on record?
**A.** The Ki was 1080 nM.

**Q.** And the MIC (Escherichia coli [6])?
**A.** Its MIC is greater than 64 µg/mL.

**Q.** What about the Activity (Escherichia coli [2]) of the same compound?
**A.** The Activity was “inactive”.

**Q.** With `CCNC(=O)c1cc(-c2sc(-c3cccnc3)nc2C2CCCCC2)n[nH]1` as the compound, how does the Ki [1] read?
**A.** The Ki was 62 nM.

**Q.** And the MIC (Escherichia coli [6])?
**A.** Its MIC is 16 µg/mL (≈ 41.9 µM).

**Q.** With `CCOC(=O)c1cc(-c2sc(-c3ccccc3)nc2C)n[nH]1` as the compound, how does the Ki [1] read?
**A.** Its Ki is 1700 nM.

**Q.** With `CC#CCOC(=O)NCc1cc(-c2sc(-c3cccnc3)nc2C2CCCCC2)n[nH]1` as the compound, how does the Ki [1] read?
**A.** Its Ki is less than 4 nM.

**Q.** And the Ki [5]?
**A.** The Ki was 69 nM.

**Q.** And the MIC (Escherichia coli [6])?
**A.** Its MIC is greater than 64 µg/mL.

**Q.** What about the Activity (Escherichia coli [2]) of the same compound?
**A.** Its Activity is “inactive”.

**Q.** Which Ki [1] does the source give for `CCOC(=O)c1cc(-c2sc(-c3cccnc3)nc2C)n[nH]1` here?
**A.** Its Ki is 330 nM.

**Q.** Which Ki [1] does the source give for `CCNC(=O)c1cc(-c2sc(-c3cccnc3)nc2-c2ccccc2)n[nH]1` here?
**A.** The Ki was 45 nM.

**Q.** What about the inhibition (Staphylococcus aureus [7]) of the same compound?
**A.** The inhibition was “Active”.

**Q.** What about the MIC (Escherichia coli [6]) of the same compound?
**A.** Its MIC is 4 µg/mL (≈ 10.7 µM).

**Q.** And the MIC (Staphylococcus aureus [8])?
**A.** Its MIC is 8 µg/mL (≈ 21.3 µM).

**Q.** And the MIC (Streptococcus pneumoniae [9])?
**A.** The MIC was 2 µg/mL (≈ 5.33 µM).

**Q.** With `CCOC(=O)c1cc(-c2sc(-c3cccnc3)nc2C2CC2)n[nH]1` as the compound, how does the Ki [1] read?
**A.** Its Ki is 240 nM.

**Q.** With `CCCc1nc(-c2ccccc2)sc1-c1cc(C(=O)OCC)[nH]n1` as the compound, how does the Ki [1] read?
**A.** Its Ki is 800 nM.

**Q.** Which Ki [1] does the source give for `C#CCOC(=O)NCc1cc(-c2sc(-c3cccnc3)nc2N2CCCCC2)[nH]n1` here?
**A.** Its Ki is 11 nM.

**Q.** What about the Ki [5] of the same compound?
**A.** The Ki was 240 nM.

**Q.** What about the Ratio Ki [10] of the same compound?
**A.** Its Ratio Ki is 10.

**Q.** And the MIC (Escherichia coli [6])?
**A.** Its MIC is 1 µg/mL (≈ 2.37 µM).

**Q.** What about the Activity (Escherichia coli [2]) of the same compound?
**A.** Its Activity is “inactive”.

**Q.** Which Ki [1] does the source give for `CCNC(=O)c1cc(-c2sc(-c3cccnc3)nc2C)n[nH]1` here?
**A.** The Ki was 350 nM.

**Q.** And the MIC (Escherichia coli [6])?
**A.** The MIC was greater than 64 µg/mL.

**Q.** And the MIC (Staphylococcus aureus [8])?
**A.** The MIC was greater than 64 µg/mL.

**Q.** What about the MIC (Streptococcus pneumoniae [9]) of the same compound?
**A.** The MIC was greater than 64 µg/mL.

**Q.** Which results are given for `CCNC(=O)c1cc(-c2sc(-c3cccnc3)nc2-c2ccc(Cl)cc2)n[nH]1`?
**A.** Ki [1]: 47 nM; MIC (Escherichia coli [6]): 8 µg/mL (≈ 19.5 µM); MIC (Staphylococcus aureus [8]): 8 µg/mL (≈ 19.5 µM); MIC (Streptococcus pneumoniae [9]): 4 µg/mL (≈ 9.76 µM)

**Q.** With `CCNC(=O)c1cc(-c2sc(-c3cccnc3)nc2N2CCCCC2)n[nH]1` as the compound, how does the Ki [1] read?
**A.** Its Ki is 90 nM.

**Q.** What about the MIC (Escherichia coli [6]) of the same compound?
**A.** Its MIC is 32 µg/mL (≈ 83.7 µM).

**Q.** With `CCc1cc(-c2sc(-c3cccs3)nc2C)n[nH]1` as the compound, how does the Ki [1] read?
**A.** Its Ki is 4800 nM.
